Numbered stars: 1 amine (or outer) side, 2 acyl side, 3 side chain; on linkers, the order of the positions; unused ones are H or OH. Square brackets hold non-standard residues; d marks the D form. Side chains are listed from the residue outwards. Peptide text beside a SMILES is read from it. * marks the point of attachment. γGlu = O=C(O)[C@H](CCC(=O)[*:2])N[*:1]; Palmitoyl = CCCCCCCCCCCCCCCC(=O)*; Aib = CC(C)(N)C(=O)O
How the values were obtained:
human GLP-1R = target: T1, human GLP-1R (Homo sapiens, UniProt P43220); experiment: GLP-1 receptor efficacy assay (cAMP formation in HEK293 cells expressing human GLP-1R); type: cell-based; conditions: Table 1a, HEK293 cells expressing hGLP-1R
T1 construct: expressed in transfected cells
Description: (§1) The 5′-end primers additionally encoded a near Kozak consensus sequence to ensure efficient translation.
(§2) 48 hr after transfection cells were seeded for limited dilution cloning and selected with 1 mg/ml G418 in the culture medium.
(§3) On the day of analysis, growth medium was removed and the cells washed once with 200 μl Tyrode buffer. […] The reaction was stopped by addition of 25 μl 0.5 M HCl and incubated on ice for 60 min. The cAMP content was estimated using the FlashPlate® cAMP kit from Perkin-Elmer.
(§4) Efficacy of the GluGLP-1 agonists were estimated by exposing cells expressing hGlucagonR and hGLP-1R to the listed acylated compounds at increasing concentrations and measuring the formed cAMP as described in Methods.

human Glucagon-R = target: T2, human Glucagon-R (Homo sapiens, UniProt P47871); experiment: Glucagon receptor efficacy assay (cAMP formation in HEK293 cells expressing human Glucagon-R); type: cell-based; conditions: Table 1a, HEK293 cells expressing hGlucagonR, read-out: EC50 (nM) GluR
T2 construct: expressed in transfected cells
Description: as §1, §2, §3, §4

[1] = Oral glucose tolerance test after 21 days s.c. administration in long term high fat fed mice; type: in vivo; conditions: 10 nmol/kg, long term high fat-fed C57BL/6J mice, two way ANOVA
Description: (§5) Male mice (Long term high fat fed C57Bl/6J, short term high fat fed C57Bl/6J and db/db) were acclimatized with free access to food and water. They were housed in groups of 5-6 in a light-, temperature-, and humidity-controlled room (12-hour light:12-hour dark cycle, lights On/Off at 2000/0800 hour; 24° C.; 50% relative humidity).
(§6) The animals were injected s.c. with 100 μl vehicle (once a day) for a period of three days to acclimatize the animals to handling and injections. Blood samples were taken from the eye or from the tip of the tail. The animals were randomized before treatment.
(§7) Mice were treated twice daily s.c. with GluGLP-1 agonist or vehicle (injection volume=2.5 ml/kg). Throughout the study, body weights were recorded daily and used to administer the body weight-corrected doses of peptide. Peptide solutions were prepared fresh immediately before dosing.
Oral glucose tolerance tests (OGTT) were performed after subjecting the animals to a short fast. To prevent confounding food intake, the animals were kept fasted during the OGTTs. After peptide dosing an initial blood sample was taken. […] The whole blood glucose (BG) was measured at t=15 min, t=30 min, t=60 min, t=90 min and t=120 min.
The BG concentration was analyzed by the immobilized glucose oxidase method using a drop of blood (<5 μl; Elite Autoanalyser, Bayer, Denmark) following the manufacturer's instructions. […]

[2] = Pharmacokinetic screening in mouse plasma after subcutaneous administration; type: in vivo; conditions: sc, mice, 100 nmol/kg s.c., * = only two time points used for calculation
Description: Mice were dosed 100 nmol/kg subcutaneously (s.c.). The mice were sacrificed and the blood collected at the following time points; 0.5, 2, 4, 6, 16 and 24 h. Plasma samples were analyzed using protein precipitation, followed by solid phase extraction (SPE) and liquid chromatography mass spectrometry (LC-MS).
Pharmacokinetic profiles were determined for various acylated compounds.

[3] = Plasma lipids after 3 weeks s.c. administration in 30 weeks high fat diet fed mice; type: in vivo, C57BL/6J mice; conditions: 10 nmol/kg twice daily s.c.
Description: The assay is an enzymatic colorimetric method. In the presence of magnesium ions, dextran sulfate selectively forms water-soluble complexes with LDL, VLDLA and chylomicrons, which are resistant to PEG-modified enzymes. The HDL cholesterol is determined enzymatically by cholesterol esterase and cholesterol oxidase coupled with PEG to the amino groups. Cholesterol esters are broken down quantitatively to free cholesterol and fatty acids. HDL cholesterol is enzymatically oxidized to choles-4-en-3-one and H2O2, and the formed H2O2 is measured colorimetrically (Cobas®; Application note HDLC3).
The direct determination of LDL takes advantage of the selective micellary solubilization of LDL by a nonionic detergent and the interaction of a sugar compound and lipoproteins (VLDL and chylomicrons). The combination of a sugar compound with detergent enables the selective determination of LDL in plasma. The test principle is the same as that of cholesterol and HDL, but due to the sugar and detergent only LDL-cholesterol esters are broken down to free cholesterol and fatty acids. Free cholesterol is then oxidized and the formed H2O2 is measured colorimetrically (Application note LDL_C, Cobas®).
The effect was measured on LDL, HDL and triglycerids (CHO: Total Cholesterol; HDL: High Density Cholesterol; LDL: Low Density Cholesterol; TRIG: Triglycerides; HDL/LDL: Ratio between HDL and LDL).

[4] = Liver weight/body weight of C57BL/6J mice treated for 2 weeks; type: in vivo
Description: Mice were treated twice daily s.c. with Cpd. 1 and Cpd. 11 (at two doses: 0.5 and 5 nmol/kg) or vehicle for 2 weeks. Throughout the study, body weights were recorded daily and used to administer the body weight-corrected doses of peptide. On the day of sacrifice, the liver was exposed, and weighed.

[5] = Body weight after 21 days s.c. administration in long term high fat fed mice; type: in vivo; conditions: 21 days b.i.d. s.c., 10 nmol/kg, long term high fat-fed C57BL/6J mice; p<0.05
Description: as §5, §6, §7
Effect of 21 days s.c. administration of compound 11 on body weight was determined in long term high fat-fed C57BL/6J mice. C57Bl/6J male mice on high fat diet (HFD) were treated (b.i.d.; s.c.) with compound 11 (10 nmol/kg) or vehicle. Body weights were recorded daily and used to administer the body weight-corrected doses of peptide throughout the study. Data are shown as mean±SEM in FIG. 4.

[6] = Body weight gain in high fat fed C57BL/6J mice (10 days); type: in vivo; conditions: 5 nmol/kg b.i.d. s.c., short term high fat-fed C57BL/6J mice
Description: C57Bl/6J male mice, 6 weeks old, were acclimatized in their new environment for 4 weeks with free access to high fat diet (HFD) (D12492, Research Diet Inc., New Brunswick, USA) and water. The animals were injected s.c. with 100 μl vehicle for a period of three days to acclimatize the animals to handling and injections, prior to initiation of peptide treatment. […] Throughout the study, body weights were recorded daily and used to administer the body weight-corrected doses of peptide. All animals were sacrificed on the same day by cervical dislocation.
C57Bl/6J male mice on high fat diet (HFD) were treated (b.i.d.; s.c.) (0.5 and 5 nmol/kg) or vehicle. Body weights were recorded daily and used to administer the body weight-corrected doses of peptide throughout the study. Data are shown as mean±SEM in FIG. 7.

[7] = HbA1c in db/db mice after 28 days; type: in vivo; conditions: 4 weeks, 12.7 nmol/kg, P=0.03 Students t-test
Description: as §5, §6
Mice were treated twice daily s.c. with GluGLP-1 agonist or vehicle (injection volume=2.5 ml/kg). Throughout the study, body weights were recorded daily and used to administer the body weight-corrected doses of peptide. Peptide solutions were prepared fresh immediately before dosing. […]
The HbA1c determination is based on Turbidimetric INhibition ImmunoAssay (TINIA) in which HbA1c in the sample reacts with anti-HbA1c to form soluble antigen-antibody complexes. Additions of polyhaptens react with excess anti-HbA1c antibodies to form an insoluble antibody-polyhapten complex, which can be measured turbidimetrically. Liberated hemoglobin in the hemolyzed sample is converted to a derivative having a characteristic absorption spectrum, which is measured bichromatically during the preincubation phases. […]

T1 sequence (P43220 24-463): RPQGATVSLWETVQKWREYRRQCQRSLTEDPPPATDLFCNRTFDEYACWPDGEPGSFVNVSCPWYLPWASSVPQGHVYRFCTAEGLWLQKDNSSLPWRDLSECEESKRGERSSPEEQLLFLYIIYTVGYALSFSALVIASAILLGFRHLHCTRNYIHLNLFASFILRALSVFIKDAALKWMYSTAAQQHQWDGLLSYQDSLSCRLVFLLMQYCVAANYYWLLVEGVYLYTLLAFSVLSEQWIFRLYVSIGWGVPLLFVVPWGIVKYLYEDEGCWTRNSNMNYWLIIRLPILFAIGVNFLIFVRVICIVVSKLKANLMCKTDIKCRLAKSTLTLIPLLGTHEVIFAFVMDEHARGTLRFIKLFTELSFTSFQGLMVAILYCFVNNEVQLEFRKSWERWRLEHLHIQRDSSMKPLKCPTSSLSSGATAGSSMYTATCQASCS
T2 sequence (P47871 26-477): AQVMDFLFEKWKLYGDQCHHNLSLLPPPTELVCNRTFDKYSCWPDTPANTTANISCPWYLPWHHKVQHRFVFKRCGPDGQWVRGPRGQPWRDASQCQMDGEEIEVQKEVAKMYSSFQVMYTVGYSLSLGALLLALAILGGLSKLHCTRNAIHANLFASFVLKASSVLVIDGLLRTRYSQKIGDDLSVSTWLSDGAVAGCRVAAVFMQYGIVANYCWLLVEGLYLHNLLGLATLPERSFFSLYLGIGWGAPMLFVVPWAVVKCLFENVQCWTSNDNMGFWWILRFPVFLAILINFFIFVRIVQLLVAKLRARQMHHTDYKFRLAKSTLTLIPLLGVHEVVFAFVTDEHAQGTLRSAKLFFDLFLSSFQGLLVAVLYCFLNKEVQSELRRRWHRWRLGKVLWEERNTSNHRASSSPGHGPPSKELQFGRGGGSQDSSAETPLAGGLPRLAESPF

SMILES | EC50 (human GLP-1R) [nM] | EC50 (human Glucagon-R) [nM] | oral glucose tolerance [1] | half-life [2] [h] | HDL ([3]; P<0.001) | LDL ([3]; P<0.001) | cholesterol (total) ([3]; P<0.001) | triglycerides ([3]; P<0.05) | ratio HDL/LDL ([3]; p<0.001) | liver weight/body weight ratio, low dose ([4]; 0.5 nmol/kg twice daily s.c.) | liver weight/body weight ratio, high dose ([4]; 5 nmol/kg twice daily s.c.) | change in liver size ([4]; repeated treatment, C57 healthy control mice, compared with compound 1) | body weight [5] | body weight gain, high dose [6] | ΔHbA1c (%) compared to vehicle [7]
CCCCCCCCCCCCCCCC(=O)N[C@@H](CCC(=O)NCCCC[C@H](NC(=O)[C@H](CCC(=O)O)NC(=O)[C@H](CC(=O)O)NC(=O)[C@H](CC(C)C)NC(=O)[C@H](Cc1ccc(O)cc1)NC(=O)[C@H](CCCCN)NC(=O)[C@H](CO)NC(=O)[C@H](Cc1ccc(O)cc1)NC(=O)[C@H](CC(=O)O)NC(=O)[C@H](CO)NC(=O)[C@@H](NC(=O)[C@H](Cc1ccccc1)NC(=O)[C@@H](NC(=O)CNC(=O)[C@H](CCC(N)=O)NC(=O)C(C)(C)NC(=O)[C@@H](N)Cc1c[nH]cn1)[C@@H](C)O)[C@@H](C)O)C(=O)N[C@@H](C)C(=O)N[C@@H](C)C(=O)N[C@@H](Cc1c[nH]cn1)C(=O)N[C@@H](CC(=O)O)C(=O)N[C@@H](Cc1ccccc1)C(=O)N[C@H](C(=O)N[C@@H](CCC(=O)O)C(=O)N[C@@H](Cc1c[nH]c2ccccc12)C(=O)N[C@@H](CC(C)C)C(=O)N[C@@H](CC(C)C)C(=O)N[C@@H](CO)C(=O)N[C@@H](C)C(N)=O)C(C)C)C(=O)O [Compound 40] (H-H[Aib]QGTFTSDYSKYLDEK([γGlu-Palmitoyl])AAHDFVEWLLSA-NH2) | 0.2 | 0.18 |  |  |  |  |  |  |  |  |  |  |  |  | 
CCCCCCCCCCCCCCCC(=O)N[C@@H](CCC(=O)NCCCC[C@H](NC(=O)[C@H](CO)NC(=O)[C@H](CC(=O)O)NC(=O)[C@H](CC(C)C)NC(=O)[C@H](Cc1ccc(O)cc1)NC(=O)[C@H](CCCCN)NC(=O)[C@H](CO)NC(=O)[C@H](Cc1ccc(O)cc1)NC(=O)[C@H](CC(=O)O)NC(=O)[C@H](CO)NC(=O)[C@@H](NC(=O)[C@H](Cc1ccccc1)NC(=O)[C@@H](NC(=O)CNC(=O)[C@H](CCC(N)=O)NC(=O)C(C)(C)NC(=O)[C@@H](N)Cc1c[nH]cn1)[C@@H](C)O)[C@@H](C)O)C(=O)N[C@@H](C)C(=O)N[C@@H](C)C(=O)N[C@@H](Cc1c[nH]cn1)C(=O)N[C@@H](CC(=O)O)C(=O)N[C@@H](Cc1ccccc1)C(=O)N[C@H](C(=O)N[C@@H](CCC(=O)O)C(=O)N[C@@H](Cc1c[nH]c2ccccc12)C(=O)N[C@@H](CC(C)C)C(=O)N[C@@H](CC(C)C)C(=O)N[C@@H](CCCNC(=N)N)C(=O)N[C@@H](C)C(N)=O)C(C)C)C(=O)O [Compound 11] (H-H[Aib]QGTFTSDYSKYLDSK([γGlu-Palmitoyl])AAHDFVEWLLRA-NH2) |  |  | significantly improved glucose tolerance | 4.9 | significantly decreased | significantly decreased | significantly decreased | significantly decreased | increased significantly | did not affect | did not affect | do not give rise to change in liver size | significantly decreased body weight | significantly decreased body weight gain at the high dose | decreased ΔHbA1c (%) significantly
CCCCCCCCCCCCCCCC(=O)NCCCC[C@H](NC(=O)[C@H](CO)NC(=O)[C@H](CC(=O)O)NC(=O)[C@H](CC(C)C)NC(=O)[C@H](Cc1ccc(O)cc1)NC(=O)[C@H](CCCCN)NC(=O)[C@H](CO)NC(=O)[C@H](Cc1ccc(O)cc1)NC(=O)[C@H](CC(=O)O)NC(=O)[C@H](CO)NC(=O)[C@@H](NC(=O)[C@H](Cc1ccccc1)NC(=O)[C@@H](NC(=O)CNC(=O)[C@H](CCC(N)=O)NC(=O)C(C)(C)NC(=O)[C@@H](N)Cc1c[nH]cn1)[C@@H](C)O)[C@@H](C)O)C(=O)N[C@@H](C)C(=O)N[C@@H](C)C(=O)N[C@@H](Cc1c[nH]cn1)C(=O)N[C@@H](CC(=O)O)C(=O)N[C@@H](Cc1ccccc1)C(=O)N[C@H](C(=O)N[C@@H](CCC(=O)O)C(=O)N[C@@H](Cc1c[nH]c2ccccc12)C(=O)N[C@@H](CC(C)C)C(=O)N[C@@H](CC(C)C)C(=O)N[C@@H](CO)C(=O)N[C@@H](C)C(N)=O)C(C)C [Compound 23] | 0.14 |  |  |  |  |  |  |  |  |  |  |  |  |  | 

— patent publication US10004786B2 (Zealand Pharma A/S, priority 2009, dated 2018)
